Literature values, collected in US20240041963A1, “A NUTRACEUTICALS FORMULATION WITH AN ENHANCED ORGANOLEPTIC PROPERTIES USED FOR SCALP AND HAIR CARE” (DiaBliss Consumer Products Pvt Ltd, priority 2020, published 2024).
Like-named read-outs stand apart in the source and are kept apart here.

Key:
[1] = system: men with hair loss; conditions: according to the American Academy of Dermatology
[2] = system: Male Patients with Androgenetic Alopecia; conditions: 30 men, 5 mg oral; for Hair Diameter: Day 0 58.5
[3] = system: Male Patients with Androgenetic Alopecia; conditions: 30 men, 5 mg oral; for Hair Density in 1 sq cm area: Day 0 182.5

CC(C)(C)NC(=O)[C@H]1CC[C@H]2[C@@H]3CC[C@H]4NC(=O)C=C[C@]4(C)[C@H]3CC[C@]12C [Finasteride]
men in whom it slows hair loss [1]: about 88%
men in whom it stimulates regrowth [1]: about 66%

Nc1cc(N2CCCCC2)nc(N)[n+]1[O-] [Oral Minoxidil, 2,4-diamino-6-piperidinopyrimidine 3-oxide]
Hair Diameter Increase vs Day 0 ([2]; Week 12 (Day 84)): 10.6%
Hair Diameter ([2]; Week 12 (Day 84)): 64.7 µm
Hair Diameter Increase vs Day 0 ([2]; Week 24 (Day 168)): 15.2%
Hair Diameter ([2]; Week 24 (Day 168)): 67.4 µm
Hair Density Increase vs Day 0 ([3]; Week 12 (Day 84)): 14.2%
Hair Density in 1 sq cm area ([3]; Week 12 (Day 84)): 208.5
Hair Density Increase vs Day 0 ([3]; Week 24 (Day 168)): 19.2%
Hair Density in 1 sq cm area ([3]; Week 24 (Day 168)): 217.6
